Laboratory results: US11541037B2, “Alkaloids from sponge, scaffolds for the inhibition of human immunodeficiency virus (HIV)” (King Abdullah University of Science and Technology, priority 2014, dated 2023)
Converted amounts (≈) assume the structure as drawn. “Also recorded” adds a separate entry of the source. Like-named read-outs stand apart in the source and are kept apart here.

Experiments:
HIV-1 [1] = tested on: HIV-1
Experimental: (§1) The EASY-HIT assay (Kremb et al. [11]) is based on HIV-1 susceptible reporter cells (LC5-RIC) that contain a stably integrated fluorescent reporter gene that is activated upon successful HIV-1 infection and expression of the early viral proteins Rev and Tat. LC5-RIC were seeded into 96-well plates (μCLEAR-Plate Black; Greiner Bio-One, Kremsmuenster, Germany) using only the 60 inner wells to avoid variations in the culture conditions in the outer wells. Cells were seeded ata density of 10,000 cells per well 24 hours prior to infection. SPE fractions for the biological replicates C26, C14 and D5, were tested in a serial 1:2-dilution with a maximum of 3% methanol or approximately 75 μg/ml for the S. carteri fraction 1 mixture on the EASY-HIT assay [11]. For the HPLC fractions, SPE fraction 1 HPLC fractions 1-11, were tested on the EASY-HIT assay for biological replicates C26, C14 and D5. The authentic samples of HD, DBH, and oroidin were screened at 3.1 μM, 6.25 μM, 12.5 μM, 25 μM, and 50 μM. All samples were tested in triplicates. After compound addition, LC5-RIC cells were infected by adding 20 μl of HIV-1 inoculum (approx. 28.8 ng of p24 for HIV-1LAI derived from HEK 293T cells) to each well of the plate. Cells were incubated at standard cell culture conditions for 48 hours after infection and were subsequently assayed for reporter expression and cell viability.
(§2) Reporter expression was determined by measuring the total fluorescent signal intensity of each culture with a fluorescence microplate reader (Fluoroskan Ascent; ThermoFisher, Schwerte, Germany) at an excitation filter wavelength of 544 nm and an emission filter wavelength of 590 nm or with a Tecan infinite M200 (Tecan, Crailsheim, Germany) at the monochromator wavelengths 552 nm for excitation and 596 for emission. Statistical significances were determined using one-way ANOVA.

[2] = biological target: T1, HIV-1 reverse transcriptase (Human immunodeficiency virus type 1 group M subtype B, UniProt P04585); assay: HIV-1 reverse transcriptase biochemical assay (EnzChek); settings: for anti-HIV-1 RT activity (in words): screened at 3.1-100 μM
T1 construct: The reverse transcriptase is a heterodimer with the p66 and the p51 subunits; purchased Calbiochem, Merck-Millipore
Experimental: The HIV-1 reverse transcriptase inhibition assay was carried out using the commercial kit EnzChek® Reverse Transcriptase Assay (Invitrogen, San Jose, Calif., USA). The reverse transcriptase is a heterodimer with the p66 and the p51 subunits with RNase H activity located in the last 15 KDa of the p66 HIV Reverse transcriptase (Calbiochem, Merck-Millipore). Polymerase activity was assessed by its ability to produce RNA-DNA heteroduplexes from a mixture of a long poly (A) template, an oligo dT primer and dTTP which is then detected by PicoGreen® dsDNA quantitation reagent. The single compound and controls were performed in triplicated in a 384-well plate format, each with a total reaction mixture of 50 μL. To begin, the poly (A) template was annealed to the oligo dT primer for one hour, then diluted 200 fold in polymerization buffer. Reverse transcriptase (1.2 μl) was added per 300 reactions. This mixture was kept on ice and aliquoted to each well with test compounds. The reaction was incubated at room temperature for one hour and then 2 μl of […] EDTA was added to stop the reaction. The RNA-DNA heteroduplex was labeled with PicoGreen and incubated for 5 minutes and then detected with the use of a SpectraMax® Paradigm® Multi-mode Microplate Detection Platform (Molecular Devices, Sunnyvale, Calif., USA) by scanning at 480 nm excitation wavelength and 520 nm emission wavelength. […] Statistical significances were determined using a one-way ANOVA.

[3] = vendor data, Enzo Life Sciences, cited from earlier work
LC5-RIC cells = assay: MTT cell proliferation (vitality) assay of infected LC5-RIC cells; assay type: cell-based; settings: for concentrations at which cytotoxicity was observed / cytotoxicity (in words): LC5-RIC cells; for cytotoxicity (in words): tested concentrations 3.1-50 μM
Experimental: The colorimetric assay […] was used in order to assess the viability and activity of LC5-RIC cells exposed to the unknown sponge mixtures, SPE fraction 1 and HPLC fractions 1-11, for three biological replicates. This cell vitality assay provides a visualization of the process where mitochondrial enzymes reduce the yellow MTT to purple formazan (ATCC, MTT cell proliferation assay). After reading the HIV reporter expression, cultures were incubated with 100 μl of MTT solution (0.5 mg of […]; Sigma, Taufkirchen, Germany) in 100 μl of culture medium for 2 hours. MTT solution was removed and 100 μl of lysis solution (10% [wt/vol] SDS and 0.6% [vol/vol] acetic acid in dimethyl sulfoxide [DMSO]) was added. The formazan concentrations of the test compounds and the uninfected control cultures were determined by an ELISA plate reader (Tecan Infinite M200, Tecan Germany GmbH, Crailsheim) and scanned with a test wavelength of 570 nm and a reference wavelength of 630 nm.

HIV-1 [4] = assay: microbe, parasite or virus in culture; settings: Human immunodeficiency virus 1, read-out: concentration giving 50% inhibition of HIV-1 (viral replication)
Experimental: as §1, §2

HIV = settings: concentrations not detailed; cited from earlier work

NC1=NC(=O)/C(=C2\CCNC(=O)c3[nH]ccc32)N1 [DBH, 4-(2-Amino-4-oxo-2-imidazolin-5-ylidene)-4,5,6,7-tetrahydropyrrolo[2,3-c]azepin-8-one]
HIV-1 infection, % of untreated controls (HIV-1 [1]; 13 μM): 30% | anti-HIV-1 RT activity (in words) [2]: did not show anti-HIV-1 RT activity; also recorded: do not affect this enzyme | solubility (in words) [3]: Soluble in 100% ethanol or DMSO | effect on cell vitality (LC5-RIC cells; 13 μM): without affecting cell vitality | concentrations at which cytotoxicity was observed (LC5-RIC cells): greater than 13 μM | cytotoxicity (in words) (LC5-RIC cells): exhibited cytotoxicity | IC50 (HIV-1 [4]): 7 µM

NC1=NC(=O)/C(=C2\CCNC(=O)c3[nH]c(Br)cc32)N1 [HD, 10Z-Hymenialdisine]
HIV infection, % of untreated controls (HIV-1 [1]; 3.1 μM): < 40% | inhibition of HIV-1 replication (in words) (HIV-1 [1]; EASY-HIT, LC5-RIC cells): capable of inhibiting HIV-1 replication | anti-HIV-1 RT activity (in words) [2]: did not show anti-HIV-1 RT activity; also recorded: do not affect this enzyme | solubility in DMSO ([3]; DMSO): 5000 µg/mL (≈ 15.4 mM) | effect on cell vitality (LC5-RIC cells; 3.1 μM): without affecting cell vitality | concentrations at which cytotoxicity was observed (LC5-RIC cells): greater than 3.1 μM | cytotoxicity (in words) (LC5-RIC cells): exhibited cytotoxicity | IC50 (HIV-1 [4]): 13 µM

Nc1ncc(/C=C/CNC(=O)c2cc(Br)c(Br)[nH]2)[nH]1 [oroidin]
ability to inhibit HIV replication, previous study (HIV): inactive | HIV-1 infection, % of untreated controls (HIV-1 [1]; 50 μM): 50% | reduction of HIV-1 replication (HIV-1 [1]; 50 μM): up to 50% | inhibition of HIV-1 replication (in words) (HIV-1 [1]; EASY-HIT, LC5-RIC cells): capable of inhibiting HIV-1 replication | inhibition of HIV-1 replication (in words) (HIV-1 [1]; EASY-HIT, LC5-RIC cells, listed as Oroidin): weakest antiviral activity | IC50 (HIV-1 [1]; read-out: concentration giving 50% inhibition of HIV-1 (viral replication), EASY-HIT, LC5-RIC cells, purchased pure compounds): 50 µM | inhibition of HIV-1 reverse transcriptase activity ([2]; 25 μM): up to 90% | inhibition of the HIV-1 RT enzyme ([2]; concentrations greater than 25 μM): 90% | anti-HIV-1 RT activity (in words) [2]: directly acting to inhibit the retroviral reverse transcriptase | cytotoxicity (in words) (LC5-RIC cells): non-cytotoxic at all tested concentrations; also recorded: without causing cytotoxicity; also recorded: no associated toxicity | cytotoxicity (in words) (LC5-RIC cells; listed as Oroidin): nontoxic for cells at all tested concentrations
